In this assay the test system is HUVEC/MSC spheroids viability. Nature of the assay: Human HUVEC/MSC cell line growth inhibition [KRAS2].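 As to viability, T/C: percent of DMSO vehicle control luminescence so 100% = untreated viability.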 The conditions noted are these: for viability, T/C: stronger effect = lower value. Put shortly:
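Concentration ranges start near each agent's clinical Cmax, or at 10 microM if none is established, and fall by half-log increments. These ranges are tested as single agents and combinations on endothelial/mesenchymal stem cell spheroids lacking tumour cells.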

Where [1] appears, read: curve of first compound, second compound 0.00949 µM.
Where [2] appears, read: curve of first compound, second compound 0.03 µM.
The mark [3] stands for this setting: curve of first compound, second compound 0.0949 µM.
[4] abbreviates: curve of first compound, second compound 0.3 µM.
Where [5] appears, read: curve of first compound, second compound 0.949 µM.
The mark [6] stands for this setting: curve of first compound, second compound 3 µM.
Where [7] appears, read: compound alone, run of 05/05/2024.

Several values for one entry are separate records, joined by “and”; a condition that tells them apart may be missing. Equal values may be shown once.

On to `CC(=O)OC12COC1CC(O)C1(C)C(=O)C(O)C3=C(C)C(OC(=O)C(O)C(NC(=O)OC(C)(C)C)c4ccccc4)CC(O)(C(OC(=O)c4ccccc4)C21)C3(C)C` (stereo not drawn) + C=CC(=O)N1CCN(c2nc(OCC3CCCN3C)nc3c2CCN(c2cccc4cccc(C)c24)C3)CC1CC#N, for which the IC50 is < 0.00949 µM under setting [1]; < 0.00949 µM under setting [2]; < 0.00949 µM under setting [3]; < 0.00949 µM under setting [4]; < 0.00949 µM under setting [5]; > 3 µM under setting [6]. Also, the viability, T/C runs as follows: (second compound 0.00949 µM, first compound 0.00949 µM) 48.9%; (second compound 0.00949 µM, first compound 0.03 µM) 42.7%; (second compound 0.00949 µM, first compound 0.0949 µM) 47.8%; (second compound 0.00949 µM, first compound 0.3 µM) 47%; (second compound 0.00949 µM, first compound 0.949 µM) 47.8%; (second compound 0.00949 µM, first compound 3 µM) 58%. For the same compound, the viability, T/C is, setting by setting: (second compound 0.03 µM, first compound 0.00949 µM) 44.7%; (second compound 0.03 µM, first compound 0.03 µM) 40.9%; (second compound 0.03 µM, first compound 0.0949 µM) 38%; (second compound 0.03 µM, first compound 0.3 µM) 48.1%; (second compound 0.03 µM, first compound 0.949 µM) 47.1%; (second compound 0.03 µM, first compound 3 µM) 49.4%. Besides, the viability, T/C was 44.3% (second compound 0.0949 µM, first compound 0.00949 µM); 42.1% (second compound 0.0949 µM, first compound 0.03 µM); 41.6% (second compound 0.0949 µM, first compound 0.0949 µM); 40.4% (second compound 0.0949 µM, first compound 0.3 µM); 45.1% (second compound 0.0949 µM, first compound 0.949 µM); 48.3% (second compound 0.0949 µM, first compound 3 µM). Further, the viability, T/C was 40.4% (second compound 0.3 µM, first compound 0.00949 µM); 49.7% (second compound 0.3 µM, first compound 0.03 µM); 45% (second compound 0.3 µM, first compound 0.0949 µM); 34.3% (second compound 0.3 µM, first compound 0.3 µM); 48.1% (second compound 0.3 µM, first compound 0.949 µM); 55% (second compound 0.3 µM, first compound 3 µM). Further, the viability, T/C by setting is: (second compound 0.949 µM, first compound 0.00949 µM) 44.7%; (second compound 0.949 µM, first compound 0.03 µM) 48.3%; (second compound 0.949 µM, first compound 0.0949 µM) 50.5%; (second compound 0.949 µM, first compound 0.3 µM) 44.5%; (second compound 0.949 µM, first compound 0.949 µM) 63.9%; (second compound 0.949 µM, first compound 3 µM) 51.5%. Moreover, the viability, T/C is, setting by setting: (second compound 3 µM, first compound 0.00949 µM) 82.6%; (second compound 3 µM, first compound 0.03 µM) 76.2%; (second compound 3 µM, first compound 0.0949 µM) 75.6%; (second compound 3 µM, first compound 0.3 µM) 62.6%; (second compound 3 µM, first compound 0.949 µM) 67.5%; (second compound 3 µM, first compound 3 µM) 90.5%.
Take `CCN1CCN(Cc2ccc(Nc3ncc(F)c(-c4cc(F)c5nc(C)n(C(C)C)c5c4)n3)nc2)CC1` + C=CC(=O)N1CCN(c2nc(OCC3CCCN3C)nc3c2CCN(c2cccc4cccc(C)c24)C3)CC1CC#N: the IC50 runs as follows: under setting [1], > 1 µM; under setting [2], > 1 µM; under setting [3], > 1 µM; under setting [4], > 1 µM; under setting [5], > 1 µM; under setting [6], > 1 µM. Besides, the viability, T/C runs as follows: (second compound 0.00949 µM, first compound 0.00316 µM) 98.1%; (second compound 0.00949 µM, first compound 0.01 µM) 94.3%; (second compound 0.00949 µM, first compound 0.0316 µM) 82.5%; (second compound 0.00949 µM, first compound 0.1 µM) 83.7%; (second compound 0.00949 µM, first compound 0.316 µM) 98.7%; (second compound 0.00949 µM, first compound 1 µM) 149%. The viability, T/C by setting is: (second compound 0.03 µM, first compound 0.00316 µM) 80.7%; (second compound 0.03 µM, first compound 0.01 µM) 75.4%; (second compound 0.03 µM, first compound 0.0316 µM) 97.9%; (second compound 0.03 µM, first compound 0.1 µM) 84.2%; (second compound 0.03 µM, first compound 0.316 µM) 111%; (second compound 0.03 µM, first compound 1 µM) 142%. Moreover, the viability, T/C is, setting by setting: (second compound 0.0949 µM, first compound 0.00316 µM) 94.6%; (second compound 0.0949 µM, first compound 0.01 µM) 82%; (second compound 0.0949 µM, first compound 0.0316 µM) 84.1%; (second compound 0.0949 µM, first compound 0.1 µM) 98.7%; (second compound 0.0949 µM, first compound 0.316 µM) 113%; (second compound 0.0949 µM, first compound 1 µM) 146%. The viability, T/C (second compound 0.3 µM, first compound 0.00316 µM) was 74.5%; the viability, T/C (second compound 0.3 µM, first compound 0.01 µM) was 89%; the viability, T/C (second compound 0.3 µM, first compound 0.0316 µM) was 86.8%; the viability, T/C (second compound 0.3 µM, first compound 0.1 µM) is 81.3%; the viability, T/C (second compound 0.3 µM, first compound 0.316 µM) is 115%; the viability, T/C (second compound 0.3 µM, first compound 1 µM) was 126%. The viability, T/C was 85.4% (second compound 0.949 µM, first compound 0.00316 µM); 64.5% (second compound 0.949 µM, first compound 0.01 µM); 77.2% (second compound 0.949 µM, first compound 0.0316 µM); 79.2% (second compound 0.949 µM, first compound 0.1 µM); 112% (second compound 0.949 µM, first compound 0.316 µM); 161% (second compound 0.949 µM, first compound 1 µM). In addition, the viability, T/C is 97.8% (second compound 3 µM, first compound 0.00316 µM); 85.2% (second compound 3 µM, first compound 0.01 µM); 97.9% (second compound 3 µM, first compound 0.0316 µM); 109% (second compound 3 µM, first compound 0.1 µM); 158% (second compound 3 µM, first compound 0.316 µM); 106% (second compound 3 µM, first compound 1 µM).
For the compound `CC(=O)OC12COC1CC(O)C1(C)C(=O)C(O)C3=C(C)C(OC(=O)C(O)C(NC(=O)OC(C)(C)C)c4ccccc4)CC(O)(C(OC(=O)c4ccccc4)C21)C3(C)C` (stereo not drawn), the viability, T/C is 45.1% [middle of 5 runs] (compound 0.00949 µM); 44.2% [middle of 5 runs] (compound 0.03 µM); 47.2% [middle of 5 runs] (compound 0.0949 µM); 47.1% [middle of 4 runs] (compound 0.3 µM); 47.9% [middle of 5 runs] (compound 0.949 µM); 58.1% [middle of 5 runs] (compound 3 µM). Under “curve of compound”, the IC50 was < 0.00949 µM.
With `CC1OCC2(CCN(c3cnc(Sc4ccnc(N)c4Cl)c(N)n3)CC2)C1N` (stereo not drawn), the IC50 is > 10 µM under setting [7] and > 10 µM (curve of compound).
For the compound `CNCc1ccccc1-c1csc(C(C)Nc2nc(C)nc3cc(OC)c(OC)cc23)c1` (stereo not drawn), the viability, T/C was 88.4% [middle of 9 runs] (compound 0.0316 µM), 84.6% [middle of 9 runs] (compound 0.316 µM) and 0.41% [middle of 8 runs] (compound 10 µM). Moreover, the IC50 under setting [7] was 5.29 µM [middle of 8 runs].
Consider `CC1COCCN1c1cc(-c2ccnn2C)c2ccnc(-c3ccn[nH]3)c2n1` (stereo not drawn), for which the viability, T/C is, setting by setting: (compound 0.03 µM) 80.5% [middle of 5 runs]; (compound 0.0949 µM) 87.6% [middle of 5 runs]; (compound 0.3 µM) 73.6% [middle of 5 runs]; (compound 0.949 µM) 56.7% [middle of 5 runs]; (compound 3 µM) 47.6% [middle of 5 runs]. For the setting “curve of compound”, the IC50 is > 3 µM and 1.95 µM and 2.38 µM.
